The values that follow come from article PMC9381536, “Non-apoptotic cell death induction via sapogenin based supramolecular particles” (Scientific Reports, 2022).

Where only a bound is given, the exact number is not on record here.

Series [1] deals with HeLa. In words: Cytotoxicity analysis (WST-1). In kind it is cell-based. As to conditions: Homo sapiens, 48 h. The protocol:
(§1) HCC1937 (Human breast cancer line), HeLa (Human […]), A549 (Human lung adenocarcinoma), MRC-5 (Human lung fibroblasts), MCF7 (Human breast cancer cells), A549 (human lung carcinoma) were obtained from American Type Culture Collection and maintained as exponentially growing monolayers by culturing according to the supplier’s instructions. MCF7, HeLa, MRC-5, and A549 cell lines were cultured and routinely passaged in DMEM media containing 10% FBS, while HCC1937 cell lines were propagated in RPMI 1640 containing 10% FBS.
(§2) Following the treatment with compounds or vehicle for 48 h, the 10% WST-1 (Roche, Switzerland) in medium was replaced in each 96 well. After 4 h incubation with WST-1 reagent at 37 °C and 5% CO2, the absorbance was measured using a microplate reader at 440 nm (Varioscan, Thermo Fisher Scientific, US). Graph Pad Prism 5 (San Diego, CA, US.) was used to calculate the IC50, which represents the concentration of compounds that is required for 50% inhibition in comparison to the vehicle-treated controls. The experiments were repeated three times independently.
(In general: Tetrazolium assays rely on reduction of a dye to a coloured formazan, in cell work by metabolically active cells.)

Series [2] relates to A549. Put plainly: Cytotoxicity analysis (WST-1). The settings on record: Homo sapiens, A549, 48 h. It counts as cell-based. The protocol: as §1, §2
For series [3], the system named is HCC1937. In words: Cytotoxicity analysis (WST-1). In kind it is cell-based. The settings on record: Homo sapiens, HCC1937, 48 h. How it is done: as §1, §2
Series [4] has as its system MRC-5. Put plainly: Cytotoxicity analysis (WST-1). It counts as cell-based. As to conditions: Homo sapiens, MRC5, MRC-5 normal cell line, 48 h. The protocol: as §1, §2
Series [5] relates to MCF7. In words: Cytotoxicity analysis (WST-1). In kind it is cell-based. The settings on record: Homo sapiens, MCF7, 48 h. The protocol:
as §1, §2

A short description of series [6]: Nile red staining (particle formation). It counts as physicochemical. As to conditions: even at 30 µM. How it is done: AG-08 and AG were dissolved in DMSO as a 1000-fold concentrated stock added into the filtered PBS, which contain 2.5 µM Nile red. After 3 h incubation at room temperature, the fluorescence intensity was measured with a microplate reader (550 nm for excitation and 635 nm for the emission wavelength) (Varioscan, Thermo Fisher Scientific, US).

For series [7] the following is noted: fibrils inducing apoptosis; cited from earlier work.
Series [8] relates to HCC1937. Put plainly: LDH (lactate dehydrogenase) releasing assay. It counts as cell-based, Human. As to conditions: LDH release and immunoblotting. The protocol:
Figure 5 The cytotoxic activity of analogs depends on particle formation like AG-08. […] The level of released LDH was calculated as fold change relative to vehicle. […] After 24 h, cell viability was measured. […] Cell viability after 24 h was measured. The reported values correspond to mean values ± standard deviation (± s.d) of three experiments. ***p < 0.001, ****p < 0.0001.
LDH-Cytotoxicity Colorimetric Assay Kit II (Biovision) was used to detect LDH releasing. Briefly, HCC1937 were seeded on 96 well plate. After treatment with compounds, cells were centrifuged at 600×g for 10 min. 10 µl supernatant were transferred into clean 96 well plate and added into 100 µl LDH Reaction Mix. Following 30 min incubation at room temperature, 10 µl stop solution were added, and absorbance was measured at 450 nm (Varioscan, Thermo Fisher Scientific, US).

In series [9] the test system is HCC1937 cells. In words: Cytotoxicity of 220 nm filtrates. The settings on record: inferred from filtration and Tween-20 tests. It counts as cell-based. The protocol:
Figure 1 AG-08 mediated cytotoxicity relies on the supramolecular structures. (A) Structure of AG-08. (B) The scanning transmission electron micrograph of 16 µM AG-08 in PBS. Figure is a representative image of stained sample with uranyl acetate (5683 × magnification; scale bar 600 nm). (C) After 3 h incubation of Nile red solution with AG-08 or AG, fluorescence intensity of Nile red was measured. (D) AG-08, Staurosporine (Sta) or vehicle samples prepared in the cell condition medium was filtrated by 220 nm filter and HCC1937 cells were exposed to the filtrates. After 24 h, the viability of cells was measured and represented as a percentage of that of the vehicle control. The error bars represent mean value ± s.d. (n = 3). *p < 0.05, **p < 0.005, ***p < 0.001. (E) Tween 20 (1:40,000) was added to the fresh medium before addition of 8 μM AG-08 or vehicle. Then cell medium was replaced with this fresh medium. Cell viability was detected after 24 h incubation. […] TEXT PRINTED IN THE PICTURE: (F) no label printed: Diameter: 153.2±4.6; polydispersity index: 0.218
To verify that the activity of AG-08 arises from its supramolecular structures, freshly prepared AG-08 solutions were filtered using 220 nm-filters to remove AG-08 supramolecular particles from medium, and the filtrates were analyzed for their cytotoxicity. […] Next, Tween-20 was utilized as a non-ionic detergent to block particle formation, and AG-08-mediated cell death was inhibited as expected (Fig. 1E). […]

In series [10] the test system is HeLa, HCC1937, MCF7, A549 and MRC-5. Put plainly: cells. In kind it is cell-based, Human.
From the text: We next aimed to further characterize the relation between the chemical structure of AG-08 and its capacity of supramolecular assembly formation together with its biological activities by preparing further derivatives. In this regard, 18 analogs (Fig. 4) were synthesized from 20(27)-octanor-cycloastragenol (SCG), cycloastragenol (CG), and astragenol (AG) by the methods shown in the method section. The details and characterization of which are shown in Supplementary Information. The cytotoxic activities of the semi-synthetic analogs were evaluated against four human cancer cell lines, namely HeLa, HCC1937, MCF7, and A549 as well as against MRC-5 as a normal cell line.
as §1, §2

`CC(C)(O)C1CCC(C)(C2C(O)CC3(C)C4CC(O)C5C(C)(CCC(O)C5(C)C)C4=CCC23C)O1` (stereo not drawn) [AG, astragenol, reference compound]: the IC50 in series [1], in series [2], in series [3], in series [4] and in series [5] was greater than 30 µM in each case. Further, in [6], the “Nile red fluorescence intensity (particle formation)” value is listed as “no fluorescence intensity”.
Turning to `C=C(C)[C@@H]1CC[C@]2(C(=O)O)CC[C@]3(C)[C@H](CC[C@@H]4[C@@]5(C)CC[C@H](O)C(C)(C)[C@@H]5CC[C@]43C)[C@@H]12` [betulinic acid], the “concentration at which fibrils form” value in series [7] is greater than 50000 µM.
In the case of `CC(=O)Nc1ccc(S(=O)(=O)OC2CCC34CC35CCC3(C)C(C6(C)CCC(C(C)(C)O)O6)C(O)CC3(C)C5C=CC4C2(C)C)cc1` (stereo not drawn) [CG-06], the IC50 is greater than 50 µM in series [1]; greater than 50 µM in [2]; 38.1 µM in series [3]; greater than 50 µM in [4]; 41.3 µM in series [5]. In addition, the “mode of cell death” value in [8] is recorded as “induced necrotic cell death”. The “formation of supramolecular assemblies/particles” value in series [9] is given as “form supramolecular assemblies”. The “cytotoxic activity (structure-activity statement)” value in series [10] is on record as “complete activity loss”.

By IC50 is commonly meant the point on the concentration scale where inhibition reaches its midpoint. A lower IC50 goes with greater potency in that assay.
